Results published in PMC11480411, “Mucosal sugars delineate pyrazine vs pyrazinone autoinducer signaling in Klebsiella oxytoca” (Nature Communications, 2024).
Values joined by “and” are separate entries in the source; they are usually repeats but may differ in a detail not shown here. Identical values can stand only once.

Columns and labels:
∆pyr K. oxytoca = test: RNA-seq of compound-supplemented ∆pyr K. oxytoca; assay type: cell-based, Klebsiella oxytoca ATCC 8724; conditions: 10 µM
Experimental: A ∆pyr K. oxytoca glycerol stock was streaked onto an LB-Agar plate supplemented with spectinomycin (50 µg/mL) and incubated aerobically at 30°C for 24 h in a stationary incubator. Single colonies were grown for 24 h aerobically in 5 mL of M9 minimal medium supplemented with 5 g/L casamino acids and 0.4% D-galactose at 30 °C and 250 rpm. Each ∆pyr K. oxytoca overnight culture was diluted 1:1000 into fresh medium (5 mL) and incubated aerobically at 30 °C and 250 rpm to mid-exponential growth (OD600 = 0.8). These conditions abrogated both detectable pyrazine and pyrazinone production. At this point, 10 µM of compound in DMSO, were added to the cultures; an equal volume of DMSO was added to cultures without compound as a solvent vehicle control. The cultures were incubated under aerobic conditions with the compounds for one hour at 30 °C and at 250 rpm. After incubation, the cultures were centrifuged, the supernatants were decanted, and the cell pellets were quickly resuspended in 5 mL of Bacterial RNAProtect (Qiagen). The samples were centrifuged again, and the pellets were frozen on dry ice and stored at −80 °C until RNA extraction. The processed cell pellets were thawed on ice and resuspended in 200 µL of lysis buffer (10 mM Tris, 1 mM EDTA, 5 mg/mL lysozyme, 12.5 µg/mL proteinase K [pH 8.0]) and incubated at room temperature for 10 min. The RNA was extracted via the Qiagen RNeasy Mini kit, treated with TURBO DNase in a total volume of 100 µL at room temperature for 30 min, and extracted again using an RNeasy Mini kit. RNA-seq analysis was conducted by the Yale Center for Genome Analysis. Sequences were aligned to the K. oxytoca ATCC 8724 genome (NC_016612.1). Differential expression analysis was performed through DESeq2 and pathway enrichment analysis was performed through the Funage-Pro web-based platform.

HRH3 = biological target: T1, HRH3 (Homo sapiens, UniProt Q9Y5N1); test: PRESTO-Tango GPCR screen and dose-response; assay type: cell-based; conditions: for HRH3 dose-response raw reporter signal (Fig. 5b source data): replicate wells
T1 construct: expressed in transfected cells; host or cells: HTLA cells (HEK293 line stably expressing β-arrestin-TEV and tTA-Luciferase)
T1 sequence (Q9Y5N1 whole entry): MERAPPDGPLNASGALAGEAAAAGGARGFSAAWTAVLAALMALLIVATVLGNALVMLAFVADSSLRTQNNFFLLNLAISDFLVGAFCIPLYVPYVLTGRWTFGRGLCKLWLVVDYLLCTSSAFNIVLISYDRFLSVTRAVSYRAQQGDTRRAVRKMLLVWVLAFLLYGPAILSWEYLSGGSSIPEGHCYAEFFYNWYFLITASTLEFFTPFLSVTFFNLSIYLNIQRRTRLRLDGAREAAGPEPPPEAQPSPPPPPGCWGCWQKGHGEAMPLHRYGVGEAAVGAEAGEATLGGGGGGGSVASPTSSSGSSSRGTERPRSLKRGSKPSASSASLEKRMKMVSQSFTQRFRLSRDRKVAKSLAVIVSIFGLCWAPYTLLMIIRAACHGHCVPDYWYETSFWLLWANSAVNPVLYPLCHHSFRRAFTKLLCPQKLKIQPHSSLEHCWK
Experimental: (§1) The PRESTO-Tango analyses were performed as previously published. Briefly, HTLA cells, a HEK293 cell line that stably expresses β-arrestin-TEV and tTA-Luciferase (a kind gift from Gilad Barnea, Brown University), were plated in 96-well tissue culture plates (Eppendorf) in DMEM containing 10% FBS and 1% Penicillin/Streptomycin. One day after plating (after reaching approximately 90% confluence), 200 ng per well GPCR-Tango plasmids[37] in 20 μL DMEM were individually mixed with 400 ng polyethylenimine (Polysciences) in an equal volume of DMEM and incubated for 20 min at room temperature before adding the transfection mixture to the HTLA cells. 16-24 h after transfection, medium was replaced with 180 μL fresh DMEM containing 1% Penicillin/Streptomycin and 10 mM HEPES and 20 μL of 3 or 3-Homo to reach a final concentration of 100 μM. Supernatants were aspirated 20 h after stimulation and 50 μl per well of Bright-Glo solution (Promega) diluted 20-fold with PBS containing 20 mM HEPES was added into each well. After 15 min incubation at room temperature, luminescence was quantified using a Spectramax i3x microplate reader (Molecular Devices). Activation fold for each sample was calculated by dividing relative luminescence units (RLU) for each condition by RLUs from PBS control. Dose response curves of each chemical were performed in a similar way with varying the ligand concentration from 10^−4 M to 10^−15 M.

HRH1 = biological target: T2, HRH1 (Homo sapiens, UniProt P35367); test: PRESTO-Tango GPCR screen and dose-response; assay type: cell-based; conditions: for HRH1 dose-response raw reporter signal (Fig. 5b source data): replicate wells
T2 construct: expressed in transfected cells; host or cells: HTLA cells (HEK293 line stably expressing β-arrestin-TEV and tTA-Luciferase)
T2 sequence (P35367 whole entry): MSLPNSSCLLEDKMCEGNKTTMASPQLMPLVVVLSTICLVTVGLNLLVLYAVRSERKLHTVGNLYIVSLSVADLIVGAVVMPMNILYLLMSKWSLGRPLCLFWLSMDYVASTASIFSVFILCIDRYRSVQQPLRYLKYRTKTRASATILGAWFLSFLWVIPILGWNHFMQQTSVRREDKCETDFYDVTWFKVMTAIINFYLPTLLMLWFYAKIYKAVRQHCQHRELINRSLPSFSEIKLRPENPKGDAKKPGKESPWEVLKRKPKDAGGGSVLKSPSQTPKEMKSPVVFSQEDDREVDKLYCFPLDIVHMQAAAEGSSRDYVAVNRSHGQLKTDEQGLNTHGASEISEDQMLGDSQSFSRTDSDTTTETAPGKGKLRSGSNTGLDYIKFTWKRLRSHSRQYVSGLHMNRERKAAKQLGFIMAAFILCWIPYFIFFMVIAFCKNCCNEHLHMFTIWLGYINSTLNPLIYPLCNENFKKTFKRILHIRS
Experimental: as §1

HRH2 = biological target: T3, HRH2 (Homo sapiens, UniProt P25021); test: PRESTO-Tango GPCR screen and dose-response; assay type: cell-based; conditions: for HRH2 dose-response raw reporter signal (Fig. 5b source data): replicate wells
T3 construct: expressed in transfected cells; host or cells: HTLA cells (HEK293 line stably expressing β-arrestin-TEV and tTA-Luciferase)
T3 sequence (P25021 whole entry): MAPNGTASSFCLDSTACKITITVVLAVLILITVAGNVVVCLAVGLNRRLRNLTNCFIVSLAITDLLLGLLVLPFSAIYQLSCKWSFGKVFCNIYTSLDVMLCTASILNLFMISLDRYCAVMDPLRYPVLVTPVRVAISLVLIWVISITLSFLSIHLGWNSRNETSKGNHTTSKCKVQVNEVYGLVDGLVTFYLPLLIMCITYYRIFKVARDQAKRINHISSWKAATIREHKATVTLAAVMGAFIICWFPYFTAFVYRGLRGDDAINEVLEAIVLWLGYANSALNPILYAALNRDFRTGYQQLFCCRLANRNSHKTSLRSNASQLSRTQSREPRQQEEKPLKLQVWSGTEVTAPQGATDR
Experimental: as §1

[1] = biological target: T4, histamine receptor H4 (HRH4) (Homo sapiens, UniProt Q9H3N8); test: PRESTO-Tango GPCR screen and dose-response; assay type: cell-based; conditions: for HRH4 dose-response raw reporter signal (Fig. 5b source data): replicate wells
T4 construct: expressed in transfected cells; host or cells: HTLA cells (HEK293 line stably expressing β-arrestin-TEV and tTA-Luciferase)
T4 sequence (Q9H3N8 whole entry): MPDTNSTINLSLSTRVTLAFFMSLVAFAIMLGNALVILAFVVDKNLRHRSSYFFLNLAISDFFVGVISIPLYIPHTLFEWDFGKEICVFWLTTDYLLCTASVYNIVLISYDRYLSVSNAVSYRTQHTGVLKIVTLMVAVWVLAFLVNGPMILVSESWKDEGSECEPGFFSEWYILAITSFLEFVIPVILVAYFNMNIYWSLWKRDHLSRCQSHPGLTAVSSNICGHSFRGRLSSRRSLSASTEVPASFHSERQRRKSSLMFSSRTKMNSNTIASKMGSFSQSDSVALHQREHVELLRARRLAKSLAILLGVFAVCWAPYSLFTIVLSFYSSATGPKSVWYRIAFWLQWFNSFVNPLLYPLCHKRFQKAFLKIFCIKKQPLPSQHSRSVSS
Experimental: as §1

Cc1cnc(CCC(=O)O)c(Cc2ccccc2)n1 [compound 7]
number of differentially regulated genes (∆pyr K. oxytoca; one hour, vs DMSO, Padj < 0.05, abs(log2FC) > 1): 644 genes
effect on enterobactin BGC transcription (∆pyr K. oxytoca; vs DMSO control, RNA-seq): significantly enhanced transcription of the enterobactin BGC
KEGG pathway enrichment neglogP: Citrate cycle, downregulated (∆pyr K. oxytoca; Funage-Pro, 7 downreg): 3.041
KEGG pathway enrichment neglogP: Glycerolipid metabolism, downregulated (∆pyr K. oxytoca; Funage-Pro, 7 downreg): 4.481
KEGG pathway enrichment neglogP: Nitrogen metabolism, downregulated (∆pyr K. oxytoca; Funage-Pro, 7 downreg): 3.06
KEGG pathway enrichment neglogP: ABC Transporters, upregulated (∆pyr K. oxytoca; Funage-Pro, 7 upreg): 4.602
KEGG pathway enrichment neglogP: Biosynthesis of siderophore group nonribosomal peptides, upregulated (∆pyr K. oxytoca; Funage-Pro, 7 upreg): 5.301
KEGG pathway enrichment neglogP: Oxidative phosphorylation, upregulated (∆pyr K. oxytoca; Funage-Pro, 7 upreg): 3.252
KEGG pathway enrichment neglogP: Phenylalanine Metabolism, upregulated (∆pyr K. oxytoca; Funage-Pro, 7 upreg): 4.301
effect on cytochrome-related operons transcription (∆pyr K. oxytoca; RNA-seq, pyrazine 7 compared with pyrazinone 3): prominently upregulated
HRH3 dose-response raw reporter signal (Fig. 5b source data) (HRH3; Log(10)Conc (M) -4): 106 and 112 and 159
HRH3 dose-response raw reporter signal (Fig. 5b source data) (HRH3; Log(10)Conc (M) -5): 124 and 133 and 80
HRH3 dose-response raw reporter signal (Fig. 5b source data) (HRH3; Log(10)Conc (M) -6): 56 and 106 and 124
HRH3 dose-response raw reporter signal (Fig. 5b source data) (HRH3; Log(10)Conc (M) -7): 83 and 106 and 180
HRH3 dose-response raw reporter signal (Fig. 5b source data) (HRH3; Log(10)Conc (M) -8): 112 and 142 and 106
HRH3 dose-response raw reporter signal (Fig. 5b source data) (HRH3; Log(10)Conc (M) -9): 97 and 112 and 139
HRH3 dose-response raw reporter signal (Fig. 5b source data) (HRH3; Log(10)Conc (M) -10): 139 and 97 and 159
HRH3 dose-response raw reporter signal (Fig. 5b source data) (HRH3; Log(10)Conc (M) -11): 91 and 139 and 136
HRH3 dose-response raw reporter signal (Fig. 5b source data) (HRH3; Log(10)Conc (M) -12): 118 and 124 and 203
HRH3 dose-response raw reporter signal (Fig. 5b source data) (HRH3; Log(10)Conc (M) -13): 59 and 109 and 130
HRH3 dose-response raw reporter signal (Fig. 5b source data) (HRH3; Log(10)Conc (M) -14): 85 and 142 and 124
HRH3 dose-response raw reporter signal (Fig. 5b source data) (HRH3; Log(10)Conc (M) -15): 53 and 91 and 112
activity towards HRH3 (HRH3; PRESTO-Tango dose-response): no activity
HRH1 dose-response raw reporter signal (Fig. 5b source data) (HRH1; Log(10)Conc (M) -4): 51351 and 49812 and 56357
HRH1 dose-response raw reporter signal (Fig. 5b source data) (HRH1; Log(10)Conc (M) -5): 52012 and 52029 and 55110
HRH1 dose-response raw reporter signal (Fig. 5b source data) (HRH1; Log(10)Conc (M) -6): 48657 and 55248 and 53819
HRH1 dose-response raw reporter signal (Fig. 5b source data) (HRH1; Log(10)Conc (M) -7): 47504 and 53144 and 54812
HRH1 dose-response raw reporter signal (Fig. 5b source data) (HRH1; Log(10)Conc (M) -8): 48011 and 51622 and 55024
HRH1 dose-response raw reporter signal (Fig. 5b source data) (HRH1; Log(10)Conc (M) -9): 49795 and 49308 and 52115
HRH1 dose-response raw reporter signal (Fig. 5b source data) (HRH1; Log(10)Conc (M) -10): 46794 and 49653 and 52654
HRH1 dose-response raw reporter signal (Fig. 5b source data) (HRH1; Log(10)Conc (M) -11): 47026 and 50225 and 51761
HRH1 dose-response raw reporter signal (Fig. 5b source data) (HRH1; Log(10)Conc (M) -12): 51855 and 50992 and 52000
HRH1 dose-response raw reporter signal (Fig. 5b source data) (HRH1; Log(10)Conc (M) -13): 49320 and 51552 and 55349
HRH1 dose-response raw reporter signal (Fig. 5b source data) (HRH1; Log(10)Conc (M) -14): 48035 and 52604 and 51817
HRH1 dose-response raw reporter signal (Fig. 5b source data) (HRH1; Log(10)Conc (M) -15): 39264 and 44810 and 48161
activity towards HRH1 (HRH1; PRESTO-Tango dose-response): no activity
HRH2 dose-response raw reporter signal (Fig. 5b source data) (HRH2; Log(10)Conc (M) -4): 62 and 50 and 47
HRH2 dose-response raw reporter signal (Fig. 5b source data) (HRH2; Log(10)Conc (M) -5): 47 and 50 and 83
HRH2 dose-response raw reporter signal (Fig. 5b source data) (HRH2; Log(10)Conc (M) -6): 18 and 53 and 71
HRH2 dose-response raw reporter signal (Fig. 5b source data) (HRH2; Log(10)Conc (M) -7): 50 (2×) and 74
HRH2 dose-response raw reporter signal (Fig. 5b source data) (HRH2; Log(10)Conc (M) -8): 44 and 35 and 56
HRH2 dose-response raw reporter signal (Fig. 5b source data) (HRH2; Log(10)Conc (M) -9): 97 and 65 and 41
HRH2 dose-response raw reporter signal (Fig. 5b source data) (HRH2; Log(10)Conc (M) -10): 56 and 32 and 21
HRH2 dose-response raw reporter signal (Fig. 5b source data) (HRH2; Log(10)Conc (M) -11): 18 and 53 and 44
HRH2 dose-response raw reporter signal (Fig. 5b source data) (HRH2; Log(10)Conc (M) -12): 32 and 65 and 68
HRH2 dose-response raw reporter signal (Fig. 5b source data) (HRH2; Log(10)Conc (M) -13): 35 and 62 and 97
HRH2 dose-response raw reporter signal (Fig. 5b source data) (HRH2; Log(10)Conc (M) -14): 32 and 47 and 68
HRH2 dose-response raw reporter signal (Fig. 5b source data) (HRH2; Log(10)Conc (M) -15): 77 and 53 and 71
activity towards HRH2 (HRH2; PRESTO-Tango dose-response): no activity
HRH4 dose-response raw reporter signal (Fig. 5b source data) ([1]; Log(10)Conc (M) -5): 245 and 339
HRH4 dose-response raw reporter signal (Fig. 5b source data) ([1]; Log(10)Conc (M) -6): 295 and 333
HRH4 dose-response raw reporter signal (Fig. 5b source data) ([1]; Log(10)Conc (M) -7): 242 and 304
HRH4 dose-response raw reporter signal (Fig. 5b source data) ([1]; Log(10)Conc (M) -8): 271 and 336
HRH4 dose-response raw reporter signal (Fig. 5b source data) ([1]; Log(10)Conc (M) -9): 425 and 324
HRH4 dose-response raw reporter signal (Fig. 5b source data) ([1]; Log(10)Conc (M) -10): 307 and 401
HRH4 dose-response raw reporter signal (Fig. 5b source data) ([1]; Log(10)Conc (M) -11): 312 and 366
HRH4 dose-response raw reporter signal (Fig. 5b source data) ([1]; Log(10)Conc (M) -12): 242 and 292
HRH4 dose-response raw reporter signal (Fig. 5b source data) ([1]; Log(10)Conc (M) -13): 256 and 383
HRH4 dose-response raw reporter signal (Fig. 5b source data) ([1]; Log(10)Conc (M) -14): 271 and 304
HRH4 dose-response raw reporter signal (Fig. 5b source data) ([1]; Log(10)Conc (M) -15): 286 and 230
activity towards HRH4 ([1]; PRESTO-Tango dose-response): no activity
